# Reference: patent US12178210B2, “Insect attractant and killing system” (priority 2020, dated 2024)
# Like-named read-outs stand apart in the source and are kept apart here.
# Columns and labels:
# [1] = for Attractant Release Rate (5-day average per time point): 15 g
# Source text: All prototype lure devices (i.e., the attractant receptacle and permeable membrane with enclosed volatile insect attractant) were constructed using polypropylene/calcium carbonate film (UV8) for the permeable membrane and Scotchpak™ (3M) polyester laminate film for the impermeable barrier material. Each lure device measured approximately 11.5 cm×5.5 cm with a 1.6 mm ( 1/16 in) diameter spherical punch in the impermeable layer exposing the membrane and an ˜8 mm ( 5/16 in) diameter heat seal around the circumference of the punch (referred to as a ring seal). […] Prior to being deployed the lures were weighed on an analytical balance (Sartorius, Universal; resolution of 0.01 g). Prototype lures were attached to a cord that ran the length of ventilated laboratory fume hood, with 5-8 cm (2-3 in) separating each lure in an open, ventilated room at the indicated temperature (18-20° C. or 39-41° C.). Every 2-3 days the lures were removed from the cord and weighed on the same scale. Lure weight was recorded and the weight loss (g/day) was calculated. In addition to prototype lures, two controls were included in the study consisting of a current Suterra lure product (WHF lure) and a competitor product (Comp. Prod. 1).
# [2] = field, Valencia
# Procedure: Every two weeks samples of the attractant were weighed to determine the mass. From the mass, the mass that had been released, the mass remaining, and the amount of ammonia released was determined.
smiles,measurement,setting,value
"N.N.O=C(O)O [Ammonium Carbonate, ammonium carbonate]",Release Rate,"[1]; 40° C., 16 hours, UV8 membrane, 1.6 mm orifice",0.39 g/day
same,Release Rate,"[1]; 40° C., 16 hours, second, unexplained block of rows",0.02 g/day
same,Release Rate,"[1]; 40° C., 24 hours, UV8 membrane, 1.6 mm orifice",0.37 g/day
same,Release Rate,"[1]; 40° C., 24 hours, second, unexplained block of rows",0.03 g/day
same,Release Rate,"[1]; 40° C., 51 hours, UV8 membrane, 1.6 mm orifice",0.36 g/day
same,Release Rate,"[1]; 40° C., 51 hours, second, unexplained block of rows",0.05 g/day
same,Release Rate,"[1]; 40° C., 88 hours, UV8 membrane, 1.6 mm orifice",0.36 g/day
same,Release Rate,"[1]; 40° C., 88 hours, second, unexplained block of rows",0.09 g/day
same,Release Rate,"[1]; 40° C., 96 hours, UV8 membrane, 1.6 mm orifice",0.36 g/day
same,Release Rate,"[1]; 40° C., 96 hours, second, unexplained block of rows",0.09 g/day
same,Release Rate,"[1]; 40° C., 112 hours, UV8 membrane, 1.6 mm orifice",0.36 g/day
same,Release Rate,"[1]; 40° C., 112 hours, second, unexplained block of rows",0.10 g/day
same,Release Rate,"[1]; 40° C., 120 hours, UV8 membrane, 1.6 mm orifice",0.36 g/day
same,Release Rate,"[1]; 40° C., 120 hours, second, unexplained block of rows",0.11 g/day
same,Release Rate,"[1]; 40° C., 144 hours, UV8 membrane, 1.6 mm orifice",0.36 g/day
same,Release Rate,"[1]; 40° C., 144 hours, second, unexplained block of rows",0.13 g/day
same,Release Rate,"[1]; 40° C., 168 hours, UV8 membrane, 1.6 mm orifice",0.35 g/day
same,Release Rate,"[1]; 40° C., 168 hours, second, unexplained block of rows",0.15 g/day
same,Attractant Release Rate (5-day average per time point),"[1]; 40° C., day 5, UV8 membrane, 1.6 mm orifice",391.6 mg/day
same,Attractant Release Rate (5-day average per time point),"[1]; 40° C., day 10, UV8 membrane, 1.6 mm orifice",402.8 mg/day
same,Attractant Release Rate (5-day average per time point),"[1]; 40° C., day 15, UV8 membrane, 1.6 mm orifice",396.5 mg/day
same,Attractant Release Rate (5-day average per time point),"[1]; 40° C., day 20, UV8 membrane, 1.6 mm orifice",316.7 mg/day
same,Attractant Release Rate (5-day average per time point),"[1]; 40° C., day 25, UV8 membrane, 1.6 mm orifice",198.0 mg/day
same,Attractant Release Rate (5-day average per time point),"[1]; 40° C., day 30, UV8 membrane, 1.6 mm orifice",156.0 mg/day
same,Attractant Release Rate (5-day average per time point),"[1]; 40° C., day 35, UV8 membrane, 1.6 mm orifice",112.0 mg/day
same,Attractant Release Rate (5-day average per time point),"[1]; 40° C., day 40, UV8 membrane, 1.6 mm orifice",108.4 mg/day
same,Attractant Release Rate (5-day average per time point),"[1]; 40° C., day 45, UV8 membrane, 1.6 mm orifice",100.4 mg/day
same,Attractant Release Rate (5-day average per time point),"[1]; 40° C., day 49, UV8 membrane, 1.6 mm orifice",98.0 mg/day
same,Attractant Release Rate (5-day average per time point),"[1]; 40° C., day 55, UV8 membrane, 1.6 mm orifice",87.7 mg/day
same,Attractant Release Rate (5-day average per time point),"[1]; Ambient Temperature, day 5, UV8 membrane, 1.6 mm orifice",97 mg/day
same,Attractant Release Rate (5-day average per time point),"[1]; Ambient Temperature, day 10, UV8 membrane, 1.6 mm orifice",99.5 mg/day
same,Attractant Release Rate (5-day average per time point),"[1]; Ambient Temperature, day 15, UV8 membrane, 1.6 mm orifice",101.9 mg/day
same,Attractant Release Rate (5-day average per time point),"[1]; Ambient Temperature, day 20, UV8 membrane, 1.6 mm orifice",104.2 mg/day
same,Attractant Release Rate (5-day average per time point),"[1]; Ambient Temperature, day 25, UV8 membrane, 1.6 mm orifice",100.5 mg/day
same,Attractant Release Rate (5-day average per time point),"[1]; Ambient Temperature, day 30, UV8 membrane, 1.6 mm orifice",101.3 mg/day
same,Attractant Release Rate (5-day average per time point),"[1]; Ambient Temperature, day 35, UV8 membrane, 1.6 mm orifice",100.0 mg/day
same,Attractant Release Rate (5-day average per time point),"[1]; Ambient Temperature, day 40, UV8 membrane, 1.6 mm orifice",86.0 mg/day
same,Attractant Release Rate (5-day average per time point),"[1]; Ambient Temperature, day 45, UV8 membrane, 1.6 mm orifice",86.5 mg/day
same,Attractant Release Rate (5-day average per time point),"[1]; Ambient Temperature, day 49, UV8 membrane, 1.6 mm orifice",84.4 mg/day
same,Attractant Release Rate (5-day average per time point),"[1]; Ambient Temperature, day 55, UV8 membrane, 1.6 mm orifice",83.8 mg/day
same,Release Rate,"[1]; Ambient, 16 hours, UV8 membrane, 1.6 mm orifice",0.12 g/day
same,Release Rate,"[1]; Ambient, 16 hours, second, unexplained block of rows",0.01 g/day
same,Release Rate,"[1]; Ambient, 24 hours, UV8 membrane, 1.6 mm orifice",0.12 g/day
same,Release Rate,"[1]; Ambient, 24 hours, second, unexplained block of rows",0.01 g/day
same,Release Rate,"[1]; Ambient, 51 hours, UV8 membrane, 1.6 mm orifice",0.12 g/day
same,Release Rate,"[1]; Ambient, 51 hours, second, unexplained block of rows",0.04 g/day
same,Release Rate,"[1]; Ambient, 88 hours, UV8 membrane, 1.6 mm orifice",0.11 g/day
same,Release Rate,"[1]; Ambient, 88 hours, second, unexplained block of rows",0.06 g/day
same,Release Rate,"[1]; Ambient, 96 hours, UV8 membrane, 1.6 mm orifice",0.12 g/day
same,Release Rate,"[1]; Ambient, 96 hours, second, unexplained block of rows",0.07 g/day
same,Release Rate,"[1]; Ambient, 112 hours, UV8 membrane, 1.6 mm orifice",0.11 g/day
same,Release Rate,"[1]; Ambient, 112 hours, second, unexplained block of rows",0.08 g/day
same,Release Rate,"[1]; Ambient, 120 hours, UV8 membrane, 1.6 mm orifice",0.12 g/day
same,Release Rate,"[1]; Ambient, 120 hours, second, unexplained block of rows",0.08 g/day
same,Release Rate,"[1]; Ambient, 144 hours, UV8 membrane, 1.6 mm orifice",0.11 g/day
same,Release Rate,"[1]; Ambient, 144 hours, second, unexplained block of rows",0.08 g/day
same,Release Rate,"[1]; Ambient, 168 hours, UV8 membrane, 1.6 mm orifice",0.11 g/day
same,Release Rate,"[1]; Ambient, 168 hours, second, unexplained block of rows",0.11 g/day
same,Avg. Mass Loss,"[2]; week 0, ave. temp. 25.10 ° C",0.00 g
same,Avg. Mass Remaining,"[2]; week 0, ave. temp. 25.10 ° C",14.94 g
same,Avg. Release Rate,"[2]; week 0, ave. temp. 25.10 ° C",0.000 g/day
same,Avg. Mass Loss,"[2]; week 2, ave. temp. 26.30 ° C",0.48 g
same,Avg. Mass Remaining,"[2]; week 2, ave. temp. 26.30 ° C",14.46 g
same,Avg. Release Rate,"[2]; week 2, ave. temp. 26.30 ° C",0.035 g/day
same,Avg. Mass Loss,"[2]; week 4, ave. temp. 26.90 ° C",1.57 g
same,Avg. Mass Remaining,"[2]; week 4, ave. temp. 26.90 ° C",13.37 g
same,Avg. Release Rate,"[2]; week 4, ave. temp. 26.90 ° C",0.078 g/day
same,Avg. Mass Loss,"[2]; week 6, ave. temp. 27.10 ° C",2.73 g
same,Avg. Mass Remaining,"[2]; week 6, ave. temp. 27.10 ° C",12.21 g
same,Avg. Release Rate,"[2]; week 6, ave. temp. 27.10 ° C",0.083 g/day
same,Avg. Mass Loss,"[2]; week 8, ave. temp. 24.40 ° C",3.77 g
same,Avg. Mass Remaining,"[2]; week 8, ave. temp. 24.40 ° C",11.17 g
same,Avg. Release Rate,"[2]; week 8, ave. temp. 24.40 ° C",0.074 g/day
same,Avg. Mass Loss,"[2]; week 10, ave. temp. 22.60 ° C",4.09 g
same,Avg. Mass Remaining,"[2]; week 10, ave. temp. 22.60 ° C",10.85 g
same,Avg. Release Rate,"[2]; week 10, ave. temp. 22.60 ° C",0.023 g/day
same,Avg. Mass Loss,"[2]; week 12, ave. temp. 21.50 ° C",4.66 g
same,Avg. Mass Remaining,"[2]; week 12, ave. temp. 21.50 ° C",10.28 g
same,Avg. Release Rate,"[2]; week 12, ave. temp. 21.50 ° C",0.041 g/day
same,Avg. Mass Loss,"[2]; week 14, ave. temp. 19.90 ° C",4.93 g
same,Avg. Mass Remaining,"[2]; week 14, ave. temp. 19.90 ° C",10.01 g
same,Avg. Release Rate,"[2]; week 14, ave. temp. 19.90 ° C",0.019 g/day
same,Avg. Mass Loss,"[2]; week 16, ave. temp. 17.70 ° C",5.11 g
same,Avg. Mass Remaining,"[2]; week 16, ave. temp. 17.70 ° C",9.83 g
same,Avg. Release Rate,"[2]; week 16, ave. temp. 17.70 ° C",0.013 g/day
same,Avg. Mass Loss,"[2]; week 18, ave. temp. 15.30 ° C",5.30 g
same,Avg. Mass Remaining,"[2]; week 18, ave. temp. 15.30 ° C",9.64 g
same,Avg. Release Rate,"[2]; week 18, ave. temp. 15.30 ° C",0.013 g/day
same,Avg. Mass Loss,"[2]; week 20, ave. temp. 14.40 ° C",5.59 g
same,Avg. Mass Remaining,"[2]; week 20, ave. temp. 14.40 ° C",9.35 g
same,Avg. Release Rate,"[2]; week 20, ave. temp. 14.40 ° C",0.021 g/day
same,Avg. Mass Loss,"[2]; week 24, ave. temp. 11.70 ° C",5.86 g
same,Avg. Mass Remaining,"[2]; week 24, ave. temp. 11.70 ° C",9.08 g
same,Avg. Release Rate,"[2]; week 24, ave. temp. 11.70 ° C",0.009 g/day
same,Avg. Mass Loss,"[2]; week 28, ave. temp. […] C",6.20 g
same,Avg. Mass Remaining,"[2]; week 28, ave. temp. […] C",8.74 g
same,Avg. Release Rate,"[2]; week 28, ave. temp. […] C",0.012 g/day
same,Avg. Mass Loss,"[2]; week 31, ave. temp. […] C",6.80 g
same,Avg. Mass Remaining,"[2]; week 31, ave. temp. […] C",8.14 g
same,Avg. Release Rate,"[2]; week 31, ave. temp. […] C",0.028 g/day
same,Avg. Mass Loss,"[2]; week 35, ave. temp. 12.60 ° C",7.29 g
same,Avg. Mass Remaining,"[2]; week 35, ave. temp. 12.60 ° C",7.65 g
same,Avg. Release Rate,"[2]; week 35, ave. temp. 12.60 ° C",0.018 g/day
same,Avg. Mass Loss,"[2]; week 38, ave. temp. 13.50 ° C",7.56 g
same,Avg. Mass Remaining,"[2]; week 38, ave. temp. 13.50 ° C",7.38 g
same,Avg. Release Rate,"[2]; week 38, ave. temp. 13.50 ° C",0.013 g/day
same,Avg. Mass Loss,"[2]; week 39, ave. temp. 13.30 ° C",7.80 g
same,Avg. Mass Remaining,"[2]; week 39, ave. temp. 13.30 ° C",7.14 g
same,Avg. Release Rate,"[2]; week 39, ave. temp. 13.30 ° C",0.033 g/day
same,Avg. Mass Loss,"[2]; week 41, ave. temp. 15.80 ° C",8.12 g
same,Avg. Mass Remaining,"[2]; week 41, ave. temp. 15.80 ° C",6.82 g
same,Avg. Release Rate,"[2]; week 41, ave. temp. 15.80 ° C",0.023 g/day
same,Avg. Mass Loss,"[2]; week 43, ave. temp. 16.50 ° C",8.44 g
same,Avg. Mass Remaining,"[2]; week 43, ave. temp. 16.50 ° C",6.50 g
same,Avg. Release Rate,"[2]; week 43, ave. temp. 16.50 ° C",0.023 g/day
same,Avg. Mass Loss,"[2]; week 46, ave. temp. 18.10 ° C",9.17 g
same,Avg. Mass Remaining,"[2]; week 46, ave. temp. 18.10 ° C",5.77 g
same,Avg. Release Rate,"[2]; week 46, ave. temp. 18.10 ° C",0.035 g/day
same,Avg. Mass Loss,"[2]; week 47, ave. temp. 20.40 ° C",9.48 g
same,Avg. Mass Remaining,"[2]; week 47, ave. temp. 20.40 ° C",5.46 g
same,Avg. Release Rate,"[2]; week 47, ave. temp. 20.40 ° C",0.044 g/day
